Reference: patent US20200326355A1, “Methods and Systems to Measure Cannabidiol (CBD)” (Laboratory Corporation of America Holdings, priority 2019, published 2020)

Experiment: LC-MS/MS measurement of hydrolyzed cannabinoid metabolites in urine of donors known to be CBD users
Settings: urine of seven known CBD users abstaining from marijuana

Row | SMILES | Parent THC detection in donated samples (16 samples) | carboxy-THC level in donated samples (13 of 16 samples detectible, all but one below the bound)
1 | CCCCCc1cc(O)c2c(c1)OC(C)(C)[C@@H]1CCC(C)=C[C@@H]21 [THC, Tetrahydrocannabinol] | not detected | –
2 | CCCCCc1cc(O)c2c(c1)OC(C)(C)[C@@H]1CCC(C(=O)O)=C[C@@H]21 [COO-THC, 11-carboxy Δ9-THC] | – | less than 15 ng/mL
